# Assay results from patent publication US20220088017A1, “COMPOSITIONS AND METHODS FOR TREATING VIRAL INFECTIONS” (priority 2020, published 2022).
# System: coronavirus (COVID-19)
# Assay: Observational case: older coronavirus contact with impending right heart failure treated with statin
# Format: in vivo
# Conditions: person
# Description: An older person developed signs and symptoms of vascular inflammation and right heart failure. This included occasional headaches, flashes in vision, general fatigue, irritability, muscle pains, epigastric pain, general abdominal distention, inability to eat and circulatory congestion, salty or blood taste in sputum. […] The impending right heart failure was thought to be secondary to myocarditis, circulatory congestion due to poor blood flow as a result of vascular inflammation and sticky walls of blood vessels. The contact was within 6 hours having intermittent chest pains, sweating, and dizziness. Cardiac arrest was thought to be a possible poor outcome leading to mortality. The medical team discussed interventions necessary with statins, with the intention of reducing blood sticking to blood vessels. […] The patient commenced treatment immediately with good results in 3 days' time. The abdominal swelling which was A sign of right heart failure subsided, abdominal pain reduced and the patient was able to eat with circulatory congestion eased.
# [1] = 20 mg daily, with OMEGA 3 based vitamin oil
smiles,measurement,setting,value
CC(C)c1nc(N(C)S(C)(=O)=O)nc(-c2ccc(F)cc2)c1/C=C/[C@@H](O)C[C@@H](O)CC(=O)O [rosuvastatin],right heart failure outcome,"coronavirus contact, 20 mg daily for two weeks, concomitantly with OMEGA 3 based vitamin oil daily",prevented this patient from going into right heart failure
same,circulation,"coronavirus contact, 20 mg daily for two weeks, with OMEGA 3 based vitamin oil",restored circulation
same,abdominal swelling (sign of right heart failure),[1],subsided
same,time to good results after start of treatment,[1],3 days
